One may read the EC50 as the concentration giving half of the maximal effect.

The test concerns the target Cannabinoid receptor 2 (Homo sapiens, UniProt P34972). The test is described as follows: Inverse agonist activity at human CB2 receptor expressed in HEK293 cells assessed as forskolin-stimulated cAMP accumulation after 30 mins by HTRF assay. For orientation: Cyclic AMP is a second messenger, typically raised through Gs and lowered through Gi signalling.

Cannabinoid receptor 2, sequence (P34972 whole entry): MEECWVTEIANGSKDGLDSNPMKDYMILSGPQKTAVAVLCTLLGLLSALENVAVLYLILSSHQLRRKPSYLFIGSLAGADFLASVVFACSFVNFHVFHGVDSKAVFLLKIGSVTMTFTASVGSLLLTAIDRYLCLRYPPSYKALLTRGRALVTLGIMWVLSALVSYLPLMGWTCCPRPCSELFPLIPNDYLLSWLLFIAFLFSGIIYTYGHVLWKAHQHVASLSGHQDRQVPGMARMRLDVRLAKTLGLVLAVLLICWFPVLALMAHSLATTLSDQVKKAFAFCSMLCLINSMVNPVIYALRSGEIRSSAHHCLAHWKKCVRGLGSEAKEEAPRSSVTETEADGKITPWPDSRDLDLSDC

For the molecule `Nc1nc(NC2CCN(S(=O)(=O)C(F)(F)F)CC2)c2cc(C(c3ccc(Cl)cc3)c3ccc(Cl)cc3)ccc2n1` [US9682955, 107], the EC50 was greater than 10 µM.

The values are drawn from BindingDB's records for doi:10.1021/acsmedchemlett.0c00495 (Janssen Research & Development, 2020).
